Test results as given in patent US20120027720A1, “PEPTIDE CONJUGATES” (priority 2008, published 2012).
Where no end group is shown, it is not given here. [ ]: non-standard residue; d: D form. Met(O2) = CS(=O)(=O)CC[C@H](N)C(=O)O; Met(O) = CS(=O)CC[C@H](N)C(=O)O; 2Thi = N[C@@H](Cc1cccs1)C(=O)O; hSer = N[C@@H](CCO)C(=O)O; Nle = CCCC[C@H](N)C(=O)O; Nva = CCC[C@H](N)C(=O)O; Abu = CC[C@H](N)C(=O)O

Legend:
CaCo2 monolayers [1] = assay: Trans Epithelial Electric Resistance (TEER) across cell monolayer; format: cell-based; parameters: key to Reduced TEER: + indicates an enhancement of the permeability of the tight junctions were observed; − indicates no enhancement of permeability was observed; conditions: Caco-2 monolayer
Source text: (§1) Agonists of tight junctions can be identified by their ability to enhance the flux of compounds (e.g. ions, Lucifer Yellow) through a cell monolayer that comprises tight junctions; or by their ability to reduce TEER across a cell monolayer that comprises tight junctions. Treatment of CaCo2 monolayers with peptide FCIGRL (SEQ ID NO: 1) led to a 51-fold enhancement of Lucifer Yellow permeability through CaCo2 monolayers compared to vehicle alone. Treatment of CaCo2 monolayers with peptide FCIGRL led to a 16-fold decrease in TEER across CaCo2 monolayers compared to vehicle alone.
(§2) Determination of TEER and Lucifer Yellow Flux
(§3) Prepare Modified Hank's Balanced Salt Solution (MHBSS) by obtaining 1 L bottle of HBSS removing 10 ml of HBSS and replacing it with 10 ml HEPES buffer pH 7.0. Adjust pH to 7.4±0.1 using concentrated NaOH (10N).
(§4) Remove Caco-2 cells from incubator, grown on 12-well, […], polycarbonate Transwell® filters (Corning) and record passage#, date cells seeded and age in days.
(§5) Aspirate cell culture medium from both the apical (AP) and basolateral (BL) compartments, replacing with 0.5 ml and 1.5 ml of MHBSS, respectively. Incubate cells at 37° C. for 30 minutes.
Using the MilliCell®-ERS instrument (Millipore), measure and record the transepithelial electrical resistance (TEER) across each filter and record.
(§6) Aspirate solution from the apical compartment of each filter (n=3 per condition) and replace with 0.5 ml of control and test solutions containing Lucifer Yellow and test compound if appropriate.
(§7) Place all plates into incubator set at 37° C. (±0.2), 50 RPM (±5) for a total of 180 minutes.
At t=30, 60, 120 and 180 minutes, measure and record the transepithelial electrical resistance (TEER) across each filter using the MilliCell-ERS instrument.
(§8) Cells: Caco-2 cells passage 40-60 grown on Transwell® plates for 21-28 days
(§9) Culture Medium: DMEM supplemented with 10% fetal bovine serum, 1% NEAA, 1% Penn/Strep
(§10) Buffers: Hank's Balanced Salt Solution (HBSS) without calcium and magnesium
(§11) Flasks: 100×20 mm Tissue culture dish Falcon.
(§12) Plates: 12 well polycarbonate Transwell® filters; 0.3 uM pore size

CaCo2 monolayers [2] = assay: Epithelial flux of Lucifer Yellow through cell monolayer; format: cell-based; parameters: key to Enhanced LY permeability: + indicates an enhancement of the permeability of the tight junctions were observed; − indicates no enhancement of permeability was observed; conditions: Lucifer Yellow flux, Caco-2 monolayer
Source text: as §1, §2, §3, §4, §5, §6, §7
At t=60, 120 and 180 minutes remove 100 μl from each basolateral compartment and place it in a 96-well plate for Lucifer Yellow analysis, replace with 100 μl of MHBSS.
Make a Lucifer Yellow standard curve with the following dilutions (7500 μM, 3750 μM, 750 μM, 375 μM, 75 μM, 37.5 μM, 7.5 μM, 3.75 μM, 0.75 μM) and pipette […] of each into a 96-well plate except for the first three standards mentioned above which require a 1:10 dilutions prior to transferring to the 96-well plate.
Harvest the remaining start solutions and what is left in each apical compartment into 1.5 ml vials. Freeze at −20° C. for future analysis.
Analyze each 96-well plate in a Tecan Spectra Fluor Plus using Magellan at 485 and 535 nm.
as §8, §9, §10, §11, §12

Substance	Reduced TEER (CaCo2 monolayers [1])	Enhanced LY permeability (CaCo2 monolayers [2])
123 (FPIGRL; also: peptide conjugate) [compound 123]	−	−
124 (FDIGRL; also: peptide conjugate) [compound 124]	−	−
125 (FLIGRL-NH2; also: peptide conjugate) [compound 125]	+	+
126 (FFIGRL-NH2; also: peptide conjugate) [compound 126]	+	+
128 (FGIGRL; also: peptide conjugate) [compound 128]	−	+
129 (FQIGRL; also: peptide conjugate) [compound 129]	−	−
130 (FEIGRL; also: peptide conjugate) [compound 130]	−	−
132 (FNIGRL; also: peptide conjugate) [compound 132]	+	−
133 (FYIGRL; also: peptide conjugate) [compound 133]	−	−
134 (FLIGRL; also: peptide conjugate) [compound 134]	−	−
135 (FVIGRL; also: peptide conjugate) [compound 135]	+	+
136 (FIIGRL; also: peptide conjugate) [compound 136]	+	+
138 (LRGILF-NH2; also: peptide conjugate) [compound 138]	+	+
139 (FLIGR-NH2; also: peptide conjugate) [compound 139]	−	−
140 (H-F[2Thi]IGRL-OH; SMILES CC[C@H](C)[C@H](NC(=O)[C@H](Cc1cccs1)NC(=O)[C@@H](N)Cc1ccccc1)C(=O)NCC(=O)N[C@@H](CCCNC(=N)N)C(=O)N[C@@H](CC(C)C)C(=O)O) [compound 140]	−	−
142 (H-F[Abu]IGRL-OH; SMILES CC[C@H](NC(=O)[C@@H](N)Cc1ccccc1)C(=O)N[C@H](C(=O)NCC(=O)N[C@@H](CCCNC(=N)N)C(=O)N[C@@H](CC(C)C)C(=O)O)[C@@H](C)CC) [compound 142]	−	−
143 (H-F[Met(O)]IGRL-OH; not fully specified; also: peptide conjugate, Xaa: 'may be' L-methionine-sulfoxide) [compound 143]	−	−
144 (H-F[Met(O2)]IGRL-OH; not fully specified; also: peptide conjugate, Xaa: 'may be' L-methionine-sulfone) [compound 144]	−	−
145 (H-F[dC]IGRL-OH; also: peptide conjugate) [compound 145]	+	+
146 (H-F[Nva]IGRL-OH; not fully specified; printed as H-Phe-Nva-Ile-Gly-Arg-Leu-OH; also: peptide conjugate, Xaa: 'may be' norvaline) [compound 146]	−	−
147 (H-F[Nle]IGRL-OH; not fully specified; printed as H-Phe-Nle-Ile-Gly-Arg-Leu-OH; also: peptide conjugate, Xaa: 'may be' L-norleucine) [compound 147]	−	−
148 (Ac-F[hSer]IGRA; also: peptide conjugate) [compound 148]	+	+
